Laboratory results taken from patent US20120010289A1, “METHOD FOR PLACENTAL EXFOLIATION USING OXO-ARACHIDONIC ACID OR THE LIKE” (Inc Admin Agcy Natl Agric & Food Res. Organization, priority 2007, published 2012).

Experiments:
[1] = test system: cultured fibroblasts derived from the placenta (MMP-producing cells); assay: Cell exfoliation assay to search for MMP activators; assay type: cell-based; settings: fibroblasts from bovine fetal placenta, monolayer treated with cortisol, compound added; FIG. 2 and FIG. 3
Description: The in vitro pharmacological evaluation is exemplified by a method using cultured fibroblasts derived from the placenta (MMP-producing cells). First, the composition for placental exfoliation of the present invention is added to a culture medium of the concerned cultured fibroblasts. After the addition, the cells are cultured for a fixed period of time.
Therefore, cultured fibroblasts derived from the placenta (MMP-producing cells) were used to search for MMP activators.
Since in vivo MMP-2 is produced from fibroblasts, fibroblasts were prepared from bovine fetal placenta. A fixed amount of cells were seeded on the culture plate, and were treated with cortisol after the monolayer formation. Further, the MMP activator candidate compounds were added thereto.

[2] = test system: pregnant Holstein cow; assay: Placental exfoliation by administration of 12-oxoarachidonic acid to a cow after prostaglandin-induced fetal delivery; assay type: in vivo
Description: The in vivo pharmacological evaluation is exemplified by a method using cows which have delivered fetuses by means of the single administration of a prostaglandin. First, the composition for placental exfoliation of the present invention is administered to cows after the fetal delivery.
In order to induce the fetal delivery, a formulation (10 ml) containing a naturally-occurring prostaglandin (50 mg) was intramuscularly injected into the hip of a pregnant Holstein cow (dairy cow) (body weight 779 kg) a week prior to the due date. Moreover, a cow after the third calving was again administered with the prostaglandin after 12 hours from the first injection thereof (evening on the first day).
The mother cow and the newborn calf were both healthy.
Next, after 4 hours from the fetal delivery, a saline solution (15 ml) containing 12-oxoarachidonic acid (1 mg) was intrajugularly injected into the mother cow which had delivered a fetus. After about 6 hours from the injection, the whole amount of the placenta was released from the mother cow. FIG. 4 presents photographs showing the manner of such parturition. […] In cases of the non-administration of 12-oxoarachidonic acid, the placenta was not released from the mother cow, and the placental retention occurred.

[3] = test system: MMP; assay: MMP activity in released placenta by gelatin zymography; assay type: in vivo, cow; settings: PG-induction+oxo placenta compared with normal parturition and placental retention; FIG. 5
Description: In the method using gelatin zymography, first, the composition for MMP activation of the present invention is brought into contact with MMP-producing cells. After the incubation for a fixed time, the cells are lysed to make a protein solution, which is then subjected to an electrophoresis using a SDS polyacrylamide electrophoresis gel containing a gelatin (MMP substrate). After the migration, the temperature was kept for a fixed time to progress the enzyme reaction, followed by staining of undegraded gelatin remaining in the gel.
The MMP activity in released placenta was analyzed. The samples were as follows: a placenta released from a mother cow of normal parturition (without specific treatment) (expressed as “normal parturition” in FIG. 5); a placenta from a mother cow which was subjected to the fetal delivery induction with a prostaglandin but suffered from placental retention (expressed as “PG-induced parturition” in FIG. 5); a placenta released from a mother cow which was subjected to the fetal delivery induction with a prostaglandin and the subsequent placental release induction with a 12-oxoarachidonic acid (expressed as “PG-induction+oxo” in FIG. 5); and a placenta from a mother cow which had naturally-occurring placental retention (expressed as “placental retention cow” in FIG. 5).
The MMP activity was measured using gelatin zymography. […]

SMILES | cell exfoliation activity (MMP activation ability) [1] | other results
CC/C=C\C/C=C\C/C=C\CCCCCCCC(=O)O [α-linolenic acid] | weak activity | –
CC/C=C/C/C=C/C/C=C/C/C=C/CCCCCCC(=O)O [ω-3-arachidonic acid] | weak activity | –
CCCCC/C=C\C/C=C\C/C=C\CCCCCCC(=O)O [dihomo-γ-linolenic acid] | weak activity | –
CCCCC/C=C\C[C@@H](O)/C=C/C=C\C/C=C\CCCC(=O)O [12(R)-hydroxyarachidonic acid] | no cell exfoliation activities | –
CCCCC/C=C\C/C=C\CCCCCCCC(=O)O [linoleic acid] | weak activity | –
CCCCC/C=C\C/C=C\C/C=C\C/C=C\CCCC(=O)O [arachidonic acid] | confirmed to have a cell exfoliation activity | –
CCCCC/C=C\C[C@@H](/C=C/C=C\C/C=C\CCCC(=O)O)OO [12(S)-hydroperoxyarachidonic acid] | weak cell exfoliation activities | –
CC/C=C\C/C=C\C/C=C\C/C=C\CCCCC(=O)O [stearidonic acid] | weak activity | –
CCCCC/C=C\CC(=O)/C=C/C=C\C/C=C\CCCC(=O)O [12-oxoarachidonic acid] | showed a cell exfoliation activity at a lower concentration than that of the arachidonic acid itself | time from injection to release of the whole amount of the placenta ([2]; 1 mg in 15 ml saline, intrajugular, 4 hours after fetal delivery, Holstein cow 779 kg): about 6 hours; reproductive function of the postexperimental mother cow ([2]; after 1 mg intrajugular 12-oxoarachidonic acid): reproductive function was not affected; MMP pattern (proMMP activity) of released placenta [3]: MMP pattern very close to that of the placenta released from the cow of normal parturition
CCCCC/C=C\C/C=C\C/C=C\CCCCC(=O)O [γ-linolenic acid] | medium activity | –
CCCCC/C=C\C[C@H](O)/C=C/C=C\C/C=C\CCCC(=O)O [12(S)-hydroxyarachidonic acid] | no cell exfoliation activities | –
